Values joined by “and” are separate entries in the source; they are usually repeats but may differ in a detail not shown here. Identical values can stand only once. Like-named read-outs stand apart in the source and are kept apart here. Values belong to the compound of their own block, whether it stands above or below them.
Legend:
[1] = molecular target: T1, Cq-FABP (Cherax quadricarinatus, UniProt L0I6Z9); experiment: ANS fluorescence intensity titration and equilibrium displacement of ANS by fatty acids; format: binding
T1 sequence (L0I6Z9 entry or part of it): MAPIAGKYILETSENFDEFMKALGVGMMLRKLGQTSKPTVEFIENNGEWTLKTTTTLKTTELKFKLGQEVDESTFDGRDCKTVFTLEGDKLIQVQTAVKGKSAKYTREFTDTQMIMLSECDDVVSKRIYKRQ
Experimental: (§1) Fluorescence emission spectra were measured at 25°C on a Cary-Eclipse spectrofluorimeter (Varian, CA, USA) equipped with a thermostated cell holder, using solutions (70 µl) placed in microcuvettes (pathlength, 0.3 cm). The binding of non-fluorescent fatty acids (PA, OA, LA, EPA and DHA) to Cq-FABP was measured indirectly by equilibrium displacement experiments using ANS as a fluorescent probe, either by measuring the fluorescence emission of ANS or by measuring the FRET between tryptophan and ANS, resulting in the quenching of donor fluorescence. The excitation wavelength was then set at 296 or 350 nm for tryptophan or ANS, respectively; the slit widths and PMT voltage were adjusted to optimize the fluorescence signal at 25°C. For titration experiments, the fluorescence emission spectrum of tryptophan or ANS was measured and the integrated fluorescence signal of tryptophan (315–360 nm) or ANS (440–600 nm) was calculated. For samples containing high concentrations of ANS, the inner-filter effect was not negligible and was corrected. UV-visible absorption spectra were carried out on a Uvikon XL spectrophotometer.
The equilibrium dissociation constant (Kd,FA) relative to the binding of fatty acids (FA) to Cq-FABP was determined by competition experiments using ANS displacement and linear regression of the following relationship: [drawing 1] (1) where Kd,ANS is the dissociation constant relative to the binding of ANS to the fatty acid binding site, Kd ^app ,ANS is the apparent dissociation constant of ANS obtained in the presence of a given fatty acid concentration.

[2] = molecular target: FABP4; parameters: method as in PMID 11827549; conditions: ref [6]; read-out: Kd of ANS; cited from earlier work
[3] = molecular target: T1, Cq-FABP; experiment: Time-resolved Trp fluorescence lifetime (single-photon counting) with ANS and PA; format: binding; conditions: for FRET efficiency: from lifetimes; for Δ%FRET,max based on lifetime values: without versus with 70 µM PA
Experimental: The distribution of fluorescence lifetimes of tryptophan was determined by monitoring the intensity decay, I(t), using the single-photon counting technique [27]–[31]. Briefly, the excitation light pulse source was a Ti:sapphire laser (Mai Tai femtosecond laser, Spectra Physics, Mountain View, CA, USA) associated with a third harmonic generator tuned to 296 nm. The laser frequency was reduced from 80 to 8 MHz using a pulse picker (Spectra Physics). Fluorescence emission was detected by a microchannel plate photomultiplier (Hamamatsu model R3809U-05) through a monochromator (ARC SpectraPro-150) set at 340 nm (Δλ = 15 nm) with the emission polarizer set at the magic angle (54.7°). A time-correlated single-photon counting SPC-430 card (Becker–Hickl, Berlin, Germany) was used for the acquisition. Experiments were performed at 25°C using 5 µM Cq-FABP in buffer C. The average fluorescence lifetime values (τm), as reported in Table 1, were calculated from the lifetime distributions recovered by the maximum entropy method, [29], [32]. For example, Cq-FABP alone was characterized by three fluorescence lifetimes (τ1 = 0.6 ns (6%), τ2 = 2.67 ns (53%), τ3 = 3.89 (41%); τm = 3.04 ns).

[4] = molecular target: T1, Cq-FABP; experiment: Steady-state FRET between the single Trp (W49) and ANS, Trp quenching and recovery by PA; format: binding
Experimental: as §1

[5] = molecular target: T1, Cq-FABP; experiment: BODIPY-C16 steady-state fluorescence anisotropy titration and competition; format: binding
Experimental: The binding of 4,4-difluoro-5, 7-dimethyl-4-bora-3a, 4a-diaza-s-indacene-3-hexadecanoic acid (BODIPY-C16) to Cq-FABP was investigated by measuring the steady-state fluorescence anisotropy parameter using a Beacon instrument (PanVera, Madison, USA), in a cell thermostatically held at 25°C. The excitation and emission bandpass filters were centered at 488 nm (±6 nm) and 525 nm (±15 nm), respectively. Titration experiments were performed in buffer C (supplemented with 10% DMSO (v/v)) by maintening a constant concentration of BODIPY-C16 (200 nM) and by adding increasing concentrations of Cq-FABP. Using a vertical direction for the polarized excitation source, the steady-state fluorescence anisotropy (r) was calculated according to: [drawing 3] (3) where IV and IH correspond to the parallel (vertical) and perpendicular (horizontal) fluorescence emission intensity components, respectively. The fraction of BODIPY-C16/Cq-FABP complexes (i.e. the fraction of BODIPY-C16 bound to Cq-FABP), fb, was calculated using the following relationship: [drawing 4] (4) where r is the measured fluorescence anisotropy value, rf and rb correspond to the fluorescence anisotropy values of free BODIPY-C16 (ligand in the free state, measured in the absence of Cq-FABP) and Cq-FABP-bound BODIPY-C16 (ligand in the bound state, corresponding to the maximum anisotropy value found at the plateau), respectively. […] The Kd characterizing the BODIPY-C16/Cq-FABP complex (Kd,C16) was calculated by fitting the plot of fb versus [Cq-FABP] using the Graphpad Prism 5.0 software.
The fluorescence anisotropy-based assay was also used in competition experiments to calculate the Kd values (Kd,FA) characterizing non-fluorescent fatty acids. The measurement of the apparent Kd value characterizing the BODIPY-C16/Cq-FABP complex (Kd ^app ,C16) under different concentration conditions for the non-fluorescent FA allows the calculation of Kd,FA according to: [drawing 5] (5) where Kd,C16 corresponds to the Kd characterizing the BODIPY-C16/Cq-FABP complex (in the absence of any non-fluorescent FA) and Kd ^app ,C16 corresponds to the apparent dissociation constant obtained for a given concentration of non-fluorescent FA. The calculation of Kd,FA was also performed in an independent manner by measuring the IC50 value characterizing each non-fluorescent FA. In this approach, the number of complexes corresponding to [C16] = 200 nM and [Cq-FABP] = 5 µM was varied by increasing the concentration of non-fluorescent FA. The IC50 value corresponds to the concentration of non-fluorescent FA that displaces 50% of C16 from the fatty acid binding site of Cq-FABP and is related to Kd,FA through the Cheng-Prusoff relationship: [drawing 6] (6)

[6] = molecular target: T1, Cq-FABP; experiment: DAUDA fluorescence intensity enhancement; format: binding; conditions: 5 µM Cq-FABP versus free DAUDA (Fig. S3A)
Text: Cis-parinaric acid and DAUDA were characterized by fluorescence emission in the 380–500 nm region (λmax,em: 410 nm) and in the 480–650 nm region (λmax,em: 540 nm), respectively (excitation wavelengths were set at 320 or 335 nm for cis-parinaric acid or DAUDA, respectively). The fluorescence intensity enhancement upon binding to Cq-FABP was monitored on a Cary-Eclipse spectrofluorimeter as indicated above. All the fluorescence emission intensities were corrected for the inner-filter effect. The emission intensity of a given fluorophore in the presence of Cq-FABP was also systematically corrected for the emission intensity of the free fluorophore. The calculation of Kd,FA was performed by measuring the IC50 value (inhibition concentration 50%) characterizing each non-fluorescent FA. As DAUDA poorly binds to Cq-FABP (see results section), only cis-parinaric acid (CPA) was used for measuring IC50 values. Titration and equilibrium displacement experiments using CPA were performed in buffer C (supplemented with 10% DMSO (v/v)). For the determination of IC50 values, the number of complexes corresponding to [CPA] = 7 µM and [Cq-FABP] = 5 µM was varied by increasing the concentration of non-fluorescent FA. […]

[7] = molecular target: T1, Cq-FABP; experiment: cis-Parinaric acid fluorescence intensity titration and competitive displacement; format: binding
Text: Cis-parinaric acid and DAUDA were characterized by fluorescence emission in the 380–500 nm region (λmax,em: 410 nm) and in the 480–650 nm region (λmax,em: 540 nm), respectively (excitation wavelengths were set at 320 or 335 nm for cis-parinaric acid or DAUDA, respectively). The fluorescence intensity enhancement upon binding to Cq-FABP was monitored on a Cary-Eclipse spectrofluorimeter as indicated above. All the fluorescence emission intensities were corrected for the inner-filter effect. The emission intensity of a given fluorophore in the presence of Cq-FABP was also systematically corrected for the emission intensity of the free fluorophore. The calculation of Kd,FA was performed by measuring the IC50 value (inhibition concentration 50%) characterizing each non-fluorescent FA. As DAUDA poorly binds to Cq-FABP (see results section), only cis-parinaric acid (CPA) was used for measuring IC50 values. Titration and equilibrium displacement experiments using CPA were performed in buffer C (supplemented with 10% DMSO (v/v)). For the determination of IC50 values, the number of complexes corresponding to [CPA] = 7 µM and [Cq-FABP] = 5 µM was varied by increasing the concentration of non-fluorescent FA. The IC50 value corresponds to the concentration of non-fluorescent FA that displaces 50% of CPA from the fatty acid binding site of Cq-FABP and is related to Kd,FA through the Cheng-Prusoff relationship: [drawing 2] (2)

[8] = 200 nM BODIPY-C16, 5 µM Cq-FABP, read-out: IC50 (displaces 50% of BODIPY-C16 from the fatty acid binding site)
[9] = calculated from equilibrium displacement experiments using the fluorescence intensity of ANS (Eq. 1), read-out: Kd,FA
[10] = calculated from the IC50 values, using Eq. 6, 200 nM BODIPY-C16, 5 µM Cq-FABP, read-out: Kd,FA
[11] = calculated from the Kd app,C16 values, using Eq. 5, 200 nM BODIPY-C16, read-out: Kd,FA
[12] = calculated from the IC50 values (Eq. 2) using the fluorescence intensity of cis-parinaric acid, 7 µM CPA, 5 µM Cq-FABP, read-out: Kd,FA

Compound: O=S(=O)(O)c1cccc2cccc(Nc3ccccc3)c12 [ANS, 8-Anilino-1-naphthalenesulfonate]
- Kd ([1]; average of the Kd,ANS values from the intensity and FRET procedures, read-out: average Kd,ANS): 27.9 µM
- Kd ([1]; direct titration, 5 µM Cq-FABP, 25°C, after removing free ANS and non specific contributions (Fig. 2B), read-out: Kd,ANS): 30 µM and ~30 µM
- Kd ([1]; from displacement amplitude ΔI by PA plotted against [ANS] (Fig. 2D), 5 µM Cq-FABP, read-out: Kd,ANS): 26 µM
- Kd ([1]; y-intercept of Kd app,ANS versus [PA] linear regression (Fig. 3B), read-out: Kd,ANS): 27.8 µM
- Kd [2]: 1700 nM
- Average fluorescence Lifetime, τm ([3]; 5 µM Cq-FABP + 5 µM ANS): 2.85 ns
- FRET efficiency ([3]; 5 µM Cq-FABP + 5 µM ANS): 6.2%
- Average fluorescence Lifetime, τm ([3]; 5 µM Cq-FABP + 10 µM ANS): 2.75 ns
- FRET efficiency ([3]; 5 µM Cq-FABP + 10 µM ANS): 9.5%
- Average fluorescence Lifetime, τm ([3]; 5 µM Cq-FABP + 50 µM ANS): 2.39 ns
- FRET efficiency ([3]; 5 µM Cq-FABP + 50 µM ANS): 21.4%
- Average fluorescence Lifetime, τm ([3]; 5 µM Cq-FABP + 200 µM ANS): 2.00 ns
- FRET efficiency ([3]; 5 µM Cq-FABP + 200 µM ANS): 34.2%
- Δ%FRET,max based on lifetime values ([3]; [ANS] = 50 µM): 12.5%
- Δ%FRET,max based on lifetime values ([3]; [ANS] = 200 µM): 11.2%
- Kd ([4]; from Δ%FRET versus [ANS] (Fig. 4D), binding to fatty acid binding site only, read-out: Kd,ANS): 27.6 µM
- Kd ([4]; quenching of Trp steady-state emission by ANS, specific plus non specific binding (Fig. 4A), read-out: apparent Kd of ANS): ~100 µM
- Δ%FRET,max (plateau) ([4]; steady-state fluorescence intensities, amplitude between [PA]0 and [PA]+∞ (Fig. 4D)): 10%

- Kd ([5]; direct titration, 200 nM BODIPY-C16, increasing Cq-FABP, 25°C, 10% DMSO, read-out: Kd,C16): 3.1 µM
Compound: Cc1cc(C)n2c1C=C1C=CC(CCCCCCCCCCCCCCCC(=O)O)=[N+]1[B-]2(F)F [BODIPY-C16, 4,4-difluoro-5,7-dimethyl-4-bora-3a, 4a-diaza-s-indacene-3-hexadecanoic acid, reference compound]

- IC50 [5, 8]: 263 µM
- Kd ([5]; from IC50 according to the Cheng-Prusoff relationship, 200 nM BODIPY-C16, 5 µM Cq-FABP, read-out: apparent Kd of Cq-FABP/DAUDA complex): ~250 µM
- binding of DAUDA by fluorescence enhancement [6]: does not bind or only poorly binds
Compound: CN(C)c1cccc2c(S(=O)(=O)NCCCCCCCCCCC(=O)O)cccc12 [DAUDA, 11-((5-dimethylaminonaphthalene-1-sulphonyl)amino)-undecanoic acid, reference compound]

- Kd [1, 9]: 5.8 ± 0.3 µM
- IC50 [5, 8]: 7.67 µM
- Kd [5, 10]: 7.4 ± 0.7 µM
- Kd [5, 11]: 6.6 ± 0.5 µM
- Kd [7, 12]: 4.4 ± 0.8 µM
Compound: CC/C=C\C/C=C\C/C=C\C/C=C\C/C=C\C/C=C\CCC(=O)O [DHA, cis-4,7,10,13,16,19-docosahexaenoic acid]

- Kd [1, 9]: 2.9 ± 0.3 µM
- IC50 [5, 8]: 2.29 µM
- Kd [5, 10]: 2.2 ± 0.4 µM
- Kd [5, 11]: 3.5 ± 0.4 µM
Compound: CC/C=C\C/C=C\C/C=C\C/C=C\C/C=C\CCCC(=O)O [EPA, cis-5,8,11,14,17-eicosapentaenoic acid]

- Kd [1, 9]: 3.1 ± 0.5 µM
- IC50 [5, 8]: 3.53 µM
- Kd [5, 10]: 3.4 ± 0.4 µM
- Kd [5, 11]: 3 ± 0.4 µM
- Kd [7, 12]: 3.3 ± 0.7 µM
Compound: CCCCC/C=C\C/C=C\CCCCCCCC(=O)O [LA, linoleic acid]

Compound: CCCCCCCC/C=C\CCCCCCCC(=O)O [OA, oleic acid]
- Kd [1]: 2.4 ± 0.4 µM
- IC50 [5]: 2.23 µM
- Kd ([5]; Kd,FA, calculated from the IC50 values, using Eq. 6, 200 nM BODIPY-C16, 5 µM Cq-FABP): 2.15 ± 0.4 µM
- Kd ([5]; Kd,FA, calculated from the Kd app,C16 values, using Eq. 5, 200 nM BODIPY-C16): 2.6 ± 0.3 µM
- Kd [7]: 1.3 ± 0.6 µM

- Kd ([7]; fluorescence enhancement upon binding, 5 µM Cq-FABP, buffer C + 10% DMSO (Fig. S3B), read-out: Kd of cis-parinaric acid): 31.2 µM
Compound: CC\C=C/C=C/C=C/C=C\CCCCCCCC(=O)O [cis-parinaric acid, reference compound]
